In data set [1] the target is T1, human recombinant chemokine CCR8 receptor (Homo sapiens, UniProt P51685).
T1 construct: purchased Euroscreen ES-136-M; host or cells: CHO-K1 cells (membranes)
As to the kind of experiment: CCL1 SPA binding assay. Particulars: inhibition of 125I CCL1 binding to CCR8 membranes from transfected CHO-K1 cells. Here is the method:
1 μl of DMSO was added to the blank control wells and 1 μl unlabeled CCL1 (300 nM) was added to background control wells. 50 μl of the SPA bead-membrane mixture was added into each well. […] Plates were then incubated at RT with shaking (700 rpm) for 90 minutes followed by 30 minutes at RT without shaking. The plate was read in a Wallac MicroBeta counter for 2 minutes/well.

Data set [2] in a line: Human microsomal stability assay. It counts as in vitro ADME. As to conditions: human microsomes (Xenotech); human microsomes 1 mg protein/mL, compound 2.5 μM, NADPH 2 mM, pH 7.4, 37° C.; read-out: Intrinsic clearance. Here is the method: Human Microsomal Stability Assay
Samples at four time-points (0, 5, 15 and 30 minutes) are withdrawn and the enzymatic reaction is terminated by protein precipitation with 1% acetic acid in acetonitrile. The incubations are performed on a thermostated plate (37° C.) placed on a Tecan worktable, and all liquid handling was performed robotically. After centrifugation of the samples, the supernatants are pooled in sets of four before they are analysed by liquid chromatography with tandem mass spectrometry detection (LC/MS/MS) using multiple reaction monitoring (MRM). Data are presented as intrinsic Clearance (CLint), μl/min/mg protein, calculated from the initial linear part of the compound disappearance curve.

One may read the IC50 as the concentration needed to halve the response being measured.

T1 sequence (P51685 whole entry): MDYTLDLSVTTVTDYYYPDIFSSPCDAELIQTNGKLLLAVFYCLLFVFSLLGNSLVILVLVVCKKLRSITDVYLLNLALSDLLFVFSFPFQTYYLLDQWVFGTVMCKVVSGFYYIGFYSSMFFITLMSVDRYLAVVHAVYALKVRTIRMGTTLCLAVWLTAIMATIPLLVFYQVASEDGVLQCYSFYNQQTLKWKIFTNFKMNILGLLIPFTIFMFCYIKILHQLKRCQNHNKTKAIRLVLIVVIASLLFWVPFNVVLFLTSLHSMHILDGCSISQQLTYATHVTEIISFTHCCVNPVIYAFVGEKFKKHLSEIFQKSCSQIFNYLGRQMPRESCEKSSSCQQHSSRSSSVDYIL

Consider `CC(C)COc1ccccc1CN1CCC2(CC1)CCN(C(=O)c1cc[n+]([O-])cc1)CC2` [A, 3-(2-isobutoxybenzyl)-9-(1-oxidoisonicotinoyl)-3,9-diazaspiro[5.5]undecane, reference compound], for which, in data set [1], the IC50 came out at 2670 nM.
Take `COc1ccccc1Oc1ccccc1CN1CCC2(CC1)CCN(C(=O)c1ccc[n+]([O-])c1)CC2` [Example 5, 3-[2-(2-methoxyphenoxy)benzyl]-9-[(1-oxidopyridin-3-yl)carbonyl]-3,9-diazaspiro[5.5]undecane]: the microsomal CLint at 2.5 μM in data set [2] is under 10 µL/min/mg. In data set [1], the IC50 was 268 nM.
Consider `CC(C)COc1ccccc1CN1CCC2(CC1)CCN(C(=O)c1ccc[n+]([O-])c1)CC2` [B, 3-(2-isobutoxybenzyl)-9-[(1-oxidopyridin-3-yl)carbonyl]-3,9-diazaspiro[5.5]undecane, reference compound], for which the IC50 in data set [1] was determined as 3050 nM.
Regarding `COc1ccccc1Oc1cccc(CN2CCC3(CC2)CCN(C(=O)c2ccc[n+]([O-])c2)CC3)c1` [Example 8, 3-[3-(2-methoxyphenoxy)benzyl]-9-[(1-oxidopyridin-3-yl)carbonyl]-3,9-diazaspiro[5.5]undecane], the microsomal CLint at 2.5 μM in data set [2] is under 10 µL/min/mg. Besides, the IC50 in data set [1] was found to be 207 nM.
On to `COc1ccccc1Oc1ccccc1CN1CCC2(CC1)CCN(C(=O)c1ccncc1)CC2` [X, 3-isonicotinoyl-9-[2-(2-methoxyphenoxy)benzyl]-3,9-diazaspiro[5.5]undecane, reference compound], for which the microsomal CLint at 2.5 μM in data set [2] worked out at 89 µL/min/mg.
As to `COc1ccccc1Oc1ccccc1CN1CCC2(CC1)CCN(C(=O)c1cccc[n+]1[O-])CC2` [Example 3, 3-[2-(2-methoxyphenoxy)benzyl]-9-[(1-oxidopyridin-2-yl)carbonyl]-3,9-diazaspiro[5.5]undecane], in data set [2], the microsomal CLint at 2.5 μM is under 10 µL/min/mg. In data set [1], the IC50 stood at 87 nM.
In the case of `COc1ccccc1Oc1ccccc1CN1CCC2(CC1)CCN(C(=O)c1cc[n+]([O-])cc1)CC2` [Example 4, 3-[2-(2-methoxyphenoxy)benzyl]-9-(1-oxidoisonicotinoyl)-3,9-diazaspiro[5.5]undecane], the microsomal CLint at 2.5 μM in data set [2] is under 10 µL/min/mg. Besides, in data set [1], the IC50 was 117 nM.
`O=C(c1cc[n+]([O-])cc1)N1CCC2(CCN(Cc3cccc(Oc4ccccc4)c3)CC2)CC1` [Example 2, 3-(1-oxidoisonicotinoyl)-9-(3-phenoxybenzyl)-3,9-diazaspiro[5.5]undecane]: the microsomal CLint at 2.5 μM in data set [2] is under 10 µL/min/mg. In addition, the IC50 in data set [1] came to 305 nM.
Take `O=C(c1cccc[n+]1[O-])N1CCC2(CCN(Cc3cccc(Oc4ccccc4)c3)CC2)CC1` [Example 1, 3-[(1-oxidopyridin-2-yl)carbonyl]-9-(3-phenoxybenzyl)-3,9-diazaspiro[5.5]undecane]: the microsomal CLint at 2.5 μM in data set [2] is under 10 µL/min/mg. Also, the IC50 in data set [1] came out at 193 nM.
As to `COc1ccccc1Oc1cccc(CN2CCC3(CC2)CCN(C(=O)c2ccncc2)CC3)c1` [Y, 3-isonicotinoyl-9-[3-(2-methoxyphenoxy)benzyl]-3,9-diazaspiro[5,5]undecane, reference compound], the microsomal CLint at 2.5 μM in data set [2] stood at 183 µL/min/mg.
